{
  "source": "patent US11046696B2",
  "about": "“Fused pyrimidine compound or salt thereof” (TAIHO PHARMACEUTICAL CO., LTD., priority 2016, dated 2021)",
  "assay": "Evaluation of stability in liver microsome",
  "conditions": "mouse liver microsome, 1 μM, 37° C. for 30 minutes",
  "description": "Solutions of the test compounds in DMSO/acetonitrile (the final concentration of each test compound was 1 μM, the final concentration of DMSO was 0.01%, and the final concentration of acetonitrile was 1%) were individually added to a liver microsome mixture solution (mouse liver microsome with a final concentration of 0.25 mg/mL, a potassium phosphate buffer with a final concentration of 100 mM, and magnesium chloride with a final concentration of 3 mM), and each mixture was pre-incubated at 37° C. for 5 minutes. […] After incubation at 37° C. for 30 minutes, a double amount of ethanol was added thereto to terminate the reaction, thereby obtaining post-reaction samples. A double amount of ethanol was added to each of the remaining mixture solutions, and a NADPH-generating system was further added thereto, thereby obtaining pre-reaction samples. The pre-reaction samples and post-reaction samples were centrifuged at 2000×g, and their supernatant was filtered through a glass filter. Each filtrate was then introduced into LC-MS/MS, and MS/MS peaks of the test compounds were detected. From the ratio of the post-reaction MS/MS peak to the pre-reaction MS/MS peak of the test compounds, the percentage of the remaining test compounds (remaining %) was calculated.",
  "data": [
    {"molecule": "COCc1ccc(NC(=O)c2c(C#CCN3CCCC3)n(C3(C)CC3)c3ncnc(N)c23)cc1", "note": "[Example 88, 4-amino-N-[4-(methoxymethyl)phenyl]-7-(1-methylcyclopropyl)-6-(3-(pyrrolidin-1-yl)prop-1-yn-1-yl)-7H-pyrrolo[2,3-d]pyrimidine-5-carboxamide]", "values": [
      {"measurement": "Remaining (%)", "result": 59, "unit": "%"}
    ]},
    {"molecule": "COCc1ccc(NC(=O)c2cn(C3(C)CC3)c3ncnc(N)c23)cc1", "note": "[Example 36, 4-amino-N-(4-(methoxymethyl)phenyl)-7-(1-methylcyclopropyl)-7H-pyrrolo[2,3-d]pyrimidine-5-carboxamide]", "values": [
      {"measurement": "Remaining (%)", "result": 73, "unit": "%"}
    ]},
    {"molecule": "COCc1ccc(NC(=O)c2c(C(C)O)n(C3(C)CC3)c3ncnc(N)c23)cc1", "note": "(stereo not drawn) [Example 204, 4-amino-6-(1-hydroxyethyl)-N-(4-(methoxymethyl)phenyl)-7-(1-methylcyclopropyl)-7H-pyrrolo[2,3-d]pyrimidine-5-carboxamide]", "values": [
      {"measurement": "Remaining (%)", "result": 83, "unit": "%"}
    ]},
    {"molecule": "COCc1ccc(NC(=O)c2c(/C=C/CO)n(C3(C)CC3)c3ncnc(N)c23)cc1", "note": "[Example 109, (E)-4-amino-6-(3-hydroxyprop-1-en-1-yl)-N-(4-(methoxymethyl)phenyl)-7-(1-methylcyclopropyl)-7H-pyrrolo[2,3-d]pyrimidine-5-carboxamide]", "values": [
      {"measurement": "Remaining (%)", "result": 68, "unit": "%"}
    ]},
    {"molecule": "COCc1ccc(NC(=O)c2c(OCC(C)C)n(C3(C)CC3)c3ncnc(N)c23)cc1", "note": "[Example 99, 4-amino-6-isobutoxy-N-(4-(methoxymethyl)phenyl)-7-(1-methylcyclopropyl)-7H-pyrrolo[2,3-d]pyrimidine-5-carboxamide]", "values": [
      {"measurement": "Remaining (%)", "result": 51, "unit": "%"}
    ]},
    {"molecule": "COCc1ccc(NC(=O)c2c(C#Cc3cncc(C#N)c3)n(C3(C)CC3)c3ncnc(N)c23)cc1", "note": "[Example 195, 4-amino-6-((5-cyanopyridin-3-yl)ethynyl)-N-(4-(methoxymethyl)phenyl)-7-(1-methylcyclopropyl)-7H-pyrrolo[2,3-d]pyrimidine-5-carboxamide]", "values": [
      {"measurement": "Remaining (%)", "result": 70, "unit": "%"}
    ]},
    {"molecule": "CCn1nccc1C#Cc1c(C(=O)Nc2ccc(COC)cc2)c2c(N)ncnc2n1C1(C)CC1", "note": "[Example 114, 4-amino-6-((1-ethyl-1H-pyrazol-5-yl)ethynyl)-N-(4-(methoxymethyl)phenyl)-7-(1-methylcyclopropyl)-7H-pyrrolo[2,3-d]pyrimidine-5-carboxamide]", "values": [
      {"measurement": "Remaining (%)", "result": 55, "unit": "%"}
    ]},
    {"molecule": "COCc1ccc(NC(=O)c2c(-c3cn[nH]c3)n(C3(C)CC3)c3ncnc(N)c23)cc1", "note": "[Example 167, 4-amino-N-(4-(methoxymethyl)phenyl)-7-(1-methylcyclopropyl)-6-(1H-pyrazol-4-yl)-7H-pyrrolo[2,3-d]pyrimidine-5-carboxamide]", "values": [
      {"measurement": "Remaining (%)", "result": 80, "unit": "%"}
    ]},
    {"molecule": "Nc1ncnc2c1c(C(=O)Nc1ccc(Oc3ccccc3)cc1)cn2C1CCCC1", "note": "[Compound 2 of Comparative Examples, 4-amino-7-cyclopentyl-N-(4-phenoxyphenyl)-7H-pyrrolo[2,3-d]pyrimidine-5-carboxamide, reference compound]", "values": [
      {"measurement": "Remaining (%)", "result": 0, "unit": "%"}
    ]},
    {"molecule": "COCc1ccc(NC(=O)c2c(C#Cc3ccccn3)n(C3(C)CC3)c3ncnc(N)c23)cc1", "note": "[Example 172, 4-amino-N-[4-(methoxymethyl)phenyl]-7-(1-methylcyclopropyl)-6-(pyridin-2-ylethynyl)-7H-pyrrolo[2,3-d]pyrimidine-5-carboxamide]", "values": [
      {"measurement": "Remaining (%)", "result": 61, "unit": "%"}
    ]},
    {"molecule": "[2H]C([2H])([2H])OCc1ccc(NC(=O)c2cn(C(C)(C)C)c3ncnc(N)c23)cc1", "note": "[Example 35, 4-amino-7-(tert-butyl)-N-(4-((methoxy-d3)-methyl)phenyl)-7H-pyrrolo[2,3-d]pyrimidine-5-carboxamide]", "values": [
      {"measurement": "Remaining (%)", "result": 58, "unit": "%"}
    ]},
    {"molecule": "COCc1ccc(NC(=O)c2c(C#Cc3cn(C)nc3C)n(C3(C)CC3)c3ncnc(N)c23)cc1", "note": "[Example 181, 4-amino-6-((1,3-dimethyl-1H-pyrazol-4-yl)ethynyl)-N-(4-(methoxymethyl)phenyl)-7-(1-methylcyclopropyl)-7H-pyrrolo[2,3-d]pyrimidine-5-carboxamide]", "values": [
      {"measurement": "Remaining (%)", "result": 62, "unit": "%"}
    ]},
    {"molecule": "COCc1ccc(NC(=O)c2c(C#Cc3cnc[nH]3)n(C3(C)CC3)c3ncnc(N)c23)cc1", "note": "[Example 191, 6-((1H-imidazol-5-yl)ethynyl)-4-amino-N-(4-(methoxymethyl)phenyl)-7-(1-methylcyclopropyl)-7H-pyrrolo[2,3-d]pyrimidine-5-carboxamide]", "values": [
      {"measurement": "Remaining (%)", "result": 53, "unit": "%"}
    ]},
    {"molecule": "COCc1ccc(NC(=O)c2c(OC)n(C3(C)CC3)c3ncnc(N)c23)cc1", "note": "[Example 57, 4-amino-6-methoxy-N-[4-(methoxymethyl)phenyl]-7-(1-methylcyclopropyl)-7H-pyrrolo[2,3-d]pyrimidine-5-carboxamide]", "values": [
      {"measurement": "Remaining (%)", "result": 86, "unit": "%"}
    ]},
    {"molecule": "COCc1ccc(NC(=O)c2c(C#Cc3cccc(F)c3)n(C3(C)CC3)c3ncnc(N)c23)cc1", "note": "[Example 130, 4-amino-6-((3-fluorophenyl)ethynyl)-N-(4-(methoxymethyl)phenyl)-7-(1-methylcyclopropyl)-7H-pyrrolo[2,3-d]pyrimidine-5-carboxamide]", "values": [
      {"measurement": "Remaining (%)", "result": 84, "unit": "%"}
    ]},
    {"molecule": "COCc1ccc(NC(=O)c2cn(C(C)(C)CF)c3ncnc(N)c23)cc1", "note": "[Example 26, 4-amino-7-(1-fluoro-2-methylpropan-2-yl)-N-(4-(methoxymethyl)phenyl)-7H-pyrrolo[2,3-d]pyrimidine-5-carboxamide]", "values": [
      {"measurement": "Remaining (%)", "result": 60, "unit": "%"}
    ]},
    {"molecule": "C=Cc1c(C(=O)Nc2ccc(COC)cc2)c2c(N)ncnc2n1C1(C)CC1", "note": "[Example 65, 4-amino-N-(4-(methoxymethyl)phenyl)-7-(1-methylcyclopropyl)-6-vinyl-7H-pyrrolo[2,3-d]pyrimidine-5-carboxamide]", "values": [
      {"measurement": "Remaining (%)", "result": 79, "unit": "%"}
    ]},
    {"molecule": "COCc1ccc(NC(=O)c2c(C(C)=O)n(C3(C)CC3)c3ncnc(N)c23)cc1", "note": "[Example 64, 6-acetyl-4-amino-N-(4-(methoxymethyl)phenyl)-7-(1-methylcyclopropyl)-7H-pyrrolo[2,3-d]pyrimidine-5-carboxamide]", "values": [
      {"measurement": "Remaining (%)", "result": 89, "unit": "%"}
    ]},
    {"molecule": "COCc1ccc(NC(=O)c2c(OCC(C)(C)OC)n(C3(C)CC3)c3ncnc(N)c23)cc1", "note": "[Example 137, 4-amino-6-(2-methoxy-2-methylpropoxy)-N-(4-(methoxymethyl)phenyl)-7-(1-methylcyclopropyl)-7H-pyrrolo[2,3-d]pyrimidine-5-carboxamide]", "values": [
      {"measurement": "Remaining (%)", "result": 53, "unit": "%"}
    ]},
    {"molecule": "COCc1ccc(NC(=O)c2c(F)n(C3(C)CC3)c3ncnc(N)c23)cc1", "note": "[Example 69, 4-amino-6-fluoro-N-(4-(methoxymethyl)phenyl)-7-(1-methylcyclopropyl)-7H-pyrrolo[2,3-d]pyrimidine-5-carboxamide]", "values": [
      {"measurement": "Remaining (%)", "result": 69, "unit": "%"}
    ]},
    {"molecule": "COCc1ccc(NC(=O)c2c(C#CC(O)C3CC3)n(C3(C)CC3)c3ncnc(N)c23)cc1", "note": "(stereo not drawn) [Example 104, 4-amino-6-(3-cyclopropyl-3-hydroxyprop-1-yn-1-yl)-N-(4-(methoxymethyl)phenyl)-7-(1-methylcyclopropyl)-7H-pyrrolo[2,3-d]pyrimidine-5-carboxamide]", "values": [
      {"measurement": "Remaining (%)", "result": 52, "unit": "%"}
    ]},
    {"molecule": "COCc1ccc(NC(=O)c2c(-c3ccc(F)nc3)n(C3(C)CC3)c3ncnc(N)c23)cc1", "note": "[Example 190, 4-amino-6-(6-fluoropyridin-3-yl)-N-(4-(methoxymethyl)phenyl)-7-(1-methylcyclopropyl)-7H-pyrrolo[2,3-d]pyrimidine-5-carboxamide]", "values": [
      {"measurement": "Remaining (%)", "result": 58, "unit": "%"}
    ]},
    {"molecule": "COCc1ccc(NC(=O)c2c(C#CCN(C)C)n(C3(C)CC3)c3ncnc(N)c23)cc1", "note": "[Example 198, 4-amino-6-(3-(dimethylamino)prop-1-yn-1-yl)-N-(4-(methoxymethyl)phenyl)-7-(1-methylcyclopropyl)-7H-pyrrolo[2,3-d]pyrimidine-5-carboxamide]", "values": [
      {"measurement": "Remaining (%)", "result": 57, "unit": "%"}
    ]},
    {"molecule": "COCc1ccc(NC(=O)c2c(C#CCC(C)(C)O)n(C3(C)CC3)c3ncnc(N)c23)cc1", "note": "[Example 86, 4-amino-6-(4-hydroxy-4-methylpent-1-yn-1-yl)-N-[4-(methoxymethyl)phenyl]-7-(1-methylcyclopropyl)-7H-pyrrolo[2,3-d]pyrimidine-5-carboxamide]", "values": [
      {"measurement": "Remaining (%)", "result": 66, "unit": "%"}
    ]},
    {"molecule": "COCc1ccc(NC(=O)c2c(C#Cc3cncc(F)c3)n(C3(C)CC3)c3ncnc(N)c23)cc1", "note": "[Example 175, 4-amino-6-((5-fluoropyridin-3-yl)ethynyl)-N-(4-(methoxymethyl)phenyl)-7-(1-methylcyclopropyl)-7H-pyrrolo[2,3-d]pyrimidine-5-carboxamide]", "values": [
      {"measurement": "Remaining (%)", "result": 66, "unit": "%"}
    ]},
    {"molecule": "CCOc1c(C(=O)Nc2ccc(-c3ccco3)cc2)c2c(N)ncnc2n1C1(C)CC1", "note": "[Example 116, 4-amino-6-ethoxy-N-(4-(furan-2-yl)phenyl)-7-(1-methylcyclopropyl)-7H-pyrrolo[2,3-d]pyrimidine-5-carboxamide]", "values": [
      {"measurement": "Remaining (%)", "result": 55, "unit": "%"}
    ]},
    {"molecule": "CCOc1c(C(=O)Nc2ccc(COC)cc2)c2c(N)ncnc2n1C1(C)CC1", "note": "[Example 127, 4-amino-6-ethoxy-N-(4-(methoxymethyl)phenyl)-7-(1-methylcyclopropyl)-7H-pyrrolo[2,3-d]pyrimidine-5-carboxamide]", "values": [
      {"measurement": "Remaining (%)", "result": 70, "unit": "%"}
    ]},
    {"molecule": "COCc1ccc(NC(=O)c2c(Br)n(C3(C)CC3)c3ncnc(N)c23)cc1", "note": "[Example 55, 4-amino-6-bromo-N-[4-(methoxymethyl)phenyl]-7-(1-methylcyclopropyl)-7H-pyrrolo[2,3-d]pyrimidine-5-carboxamide]", "values": [
      {"measurement": "Remaining (%)", "result": 56, "unit": "%"}
    ]},
    {"molecule": "COCc1ccc(NC(=O)c2c(OCC3CCCC3)n(C3(C)CC3)c3ncnc(N)c23)cc1", "note": "[Example 140, 4-amino-6-(cyclopentylmethoxy)-N-(4-(methoxymethyl)phenyl)-7-(1-methylcyclopropyl)-7H-pyrrolo[2,3-d] pyrimidine-5-carboxamide]", "values": [
      {"measurement": "Remaining (%)", "result": 52, "unit": "%"}
    ]},
    {"molecule": "COCc1ccc(NC(=O)c2c(Cl)n(C3(C)CC3)c3ncnc(N)c23)cc1", "note": "[Example 56, 4-amino-6-chloro-N-[4-(methoxymethyl)phenyl]-7-(1-methylcyclopropyl)-7H-pyrrolo[2,3-d]pyrimidine-5-carboxamide]", "values": [
      {"measurement": "Remaining (%)", "result": 62, "unit": "%"}
    ]}
  ]
}
